# Laboratory results reported in ChEMBL document CHEMBL1201862, “PubChem BioAssay data set” (2004).
# Calls of active or inactive are those of the source.
# What was measured:
# cells [1] = experiment: cells
# [2] = target: T1, Oxysterols receptor LXR-beta (Homo sapiens, UniProt P55055); assay type: functional, cell-based;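 note: Cell-based luminescence dose-response assay of agonist activity at LXR, run as a confirmatory counterscreen to a daf-12 agonist screen; HEK293 cells with Gal4-LXR fusion and GAL4-driven luciferase reporter; agonist potency from rising luciferase signal of a Gal4-LXR reporter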
# T1 sequence (P55055 whole entry): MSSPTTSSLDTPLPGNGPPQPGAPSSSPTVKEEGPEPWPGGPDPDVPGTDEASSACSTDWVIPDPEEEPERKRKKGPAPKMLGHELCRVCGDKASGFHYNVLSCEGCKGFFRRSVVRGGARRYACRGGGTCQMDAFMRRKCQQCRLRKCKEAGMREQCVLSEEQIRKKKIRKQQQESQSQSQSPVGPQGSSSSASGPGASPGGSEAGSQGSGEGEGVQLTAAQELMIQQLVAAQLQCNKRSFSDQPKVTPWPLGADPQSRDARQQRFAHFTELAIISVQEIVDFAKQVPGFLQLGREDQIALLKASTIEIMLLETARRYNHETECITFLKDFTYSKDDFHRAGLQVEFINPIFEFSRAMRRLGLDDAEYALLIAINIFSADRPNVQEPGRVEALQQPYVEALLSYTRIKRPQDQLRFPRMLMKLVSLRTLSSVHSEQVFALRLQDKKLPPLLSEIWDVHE
# [3] = target: Disintegrin and metalloproteinase domain-containing protein 17 (Homo sapiens, UniProt P78536); experiment: exosite inhibitors of ADAM17, dose response, biochemical (AID 743260)
# [4] = inhibition of ADAM10 peptide cleavage – biochemical, FRET peptide substrate, recombinant human ADAM10, selectivity assay for ADAM17 exosite inhibitor project, dose response (AID 743259);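 note: ADAM10 enzyme cleaving a FRET peptide substrate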
# [5] = target: T2, High affinity choline transporter 1 (Homo sapiens, UniProt Q9GZV3); experiment: human choline transporter blockers, potency – cell-based, 5-point CRC, membrane potential dye, dose response (AID 504840); assay type: functional
# T2 sequence (Q9GZV3 whole entry): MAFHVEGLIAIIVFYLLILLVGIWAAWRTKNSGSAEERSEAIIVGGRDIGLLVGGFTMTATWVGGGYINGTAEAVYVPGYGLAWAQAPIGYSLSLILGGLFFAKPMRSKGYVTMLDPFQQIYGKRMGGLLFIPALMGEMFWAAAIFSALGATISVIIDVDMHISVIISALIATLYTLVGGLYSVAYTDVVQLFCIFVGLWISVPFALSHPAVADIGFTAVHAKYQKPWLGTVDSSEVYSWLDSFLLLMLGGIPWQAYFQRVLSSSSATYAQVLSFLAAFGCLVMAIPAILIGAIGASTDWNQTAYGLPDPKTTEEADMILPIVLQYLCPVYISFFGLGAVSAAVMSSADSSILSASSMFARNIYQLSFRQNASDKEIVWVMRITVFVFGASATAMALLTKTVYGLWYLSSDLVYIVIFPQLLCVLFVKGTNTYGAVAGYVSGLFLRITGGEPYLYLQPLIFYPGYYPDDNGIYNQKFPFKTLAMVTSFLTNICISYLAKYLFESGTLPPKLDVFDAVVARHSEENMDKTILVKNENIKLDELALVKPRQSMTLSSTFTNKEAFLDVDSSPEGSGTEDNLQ
# [6] = target: T3, Carboxy-terminal domain RNA polymerase II polypeptide A small phosphatase 1 (Homo sapiens, UniProt Q9GZU7); experiment: CTDSP1 inhibitors, concentration-response, biochemical, absorbance readout, ultra-high-throughput screen actives (AID 540297); assay type: functional
# T3 sequence (Q9GZU7 whole entry): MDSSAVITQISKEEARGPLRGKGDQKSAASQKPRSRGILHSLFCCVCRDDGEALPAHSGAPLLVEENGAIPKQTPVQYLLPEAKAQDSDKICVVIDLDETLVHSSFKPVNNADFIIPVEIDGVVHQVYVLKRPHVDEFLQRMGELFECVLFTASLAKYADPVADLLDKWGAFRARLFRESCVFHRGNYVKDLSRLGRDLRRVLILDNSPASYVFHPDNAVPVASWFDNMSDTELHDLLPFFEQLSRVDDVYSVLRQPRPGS
# [7] = target: T4, Histone-lysine N-methyltransferase NSD2 (Homo sapiens, UniProt O96028); assay type: biochemical
# T4 sequence (O96028 whole entry): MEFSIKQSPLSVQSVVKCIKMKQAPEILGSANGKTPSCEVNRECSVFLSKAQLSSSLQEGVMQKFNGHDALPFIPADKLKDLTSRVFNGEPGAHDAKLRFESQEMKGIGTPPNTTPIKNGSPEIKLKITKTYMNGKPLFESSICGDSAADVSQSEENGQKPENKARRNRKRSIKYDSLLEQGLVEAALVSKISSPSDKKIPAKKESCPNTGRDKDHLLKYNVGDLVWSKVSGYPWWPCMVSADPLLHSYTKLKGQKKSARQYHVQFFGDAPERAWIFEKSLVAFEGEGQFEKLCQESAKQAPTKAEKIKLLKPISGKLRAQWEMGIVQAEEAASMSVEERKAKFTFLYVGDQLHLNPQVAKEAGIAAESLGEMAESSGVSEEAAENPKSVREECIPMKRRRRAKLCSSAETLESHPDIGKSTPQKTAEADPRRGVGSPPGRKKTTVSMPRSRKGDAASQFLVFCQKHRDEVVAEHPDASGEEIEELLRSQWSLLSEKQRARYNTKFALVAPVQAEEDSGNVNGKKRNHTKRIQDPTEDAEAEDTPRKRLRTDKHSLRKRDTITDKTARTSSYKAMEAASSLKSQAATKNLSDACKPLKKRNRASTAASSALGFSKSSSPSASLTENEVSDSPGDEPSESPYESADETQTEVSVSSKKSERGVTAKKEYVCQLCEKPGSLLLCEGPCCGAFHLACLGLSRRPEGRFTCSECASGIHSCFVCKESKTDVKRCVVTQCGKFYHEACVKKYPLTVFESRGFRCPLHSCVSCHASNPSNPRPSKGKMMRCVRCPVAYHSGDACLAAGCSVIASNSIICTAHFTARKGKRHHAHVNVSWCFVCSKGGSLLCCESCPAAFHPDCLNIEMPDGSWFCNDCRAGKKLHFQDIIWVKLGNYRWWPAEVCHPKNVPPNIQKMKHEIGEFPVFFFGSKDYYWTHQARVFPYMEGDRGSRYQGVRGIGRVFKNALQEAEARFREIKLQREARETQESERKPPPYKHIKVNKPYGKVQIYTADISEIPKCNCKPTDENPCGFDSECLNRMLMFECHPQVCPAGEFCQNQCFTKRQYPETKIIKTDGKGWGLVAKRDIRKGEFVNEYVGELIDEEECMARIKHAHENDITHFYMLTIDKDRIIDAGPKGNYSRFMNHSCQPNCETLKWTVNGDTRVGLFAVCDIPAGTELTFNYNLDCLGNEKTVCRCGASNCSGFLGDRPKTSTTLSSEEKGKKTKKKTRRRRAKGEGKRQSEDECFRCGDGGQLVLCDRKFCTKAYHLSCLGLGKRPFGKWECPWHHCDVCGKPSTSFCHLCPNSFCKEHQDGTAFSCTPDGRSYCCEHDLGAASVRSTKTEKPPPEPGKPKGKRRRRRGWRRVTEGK
# Fatty acid synthase [8] = target: T5, Fatty acid synthase (Homo sapiens, UniProt P49327); experiment: inhibition of human FAS-TE enzyme activity – biochemical, endpoint fluorescence intensity, uHTS hits, dose response (AID 624327); assay type: functional;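 note: fluorescence from hydrolysis of an O-methyl fluorescein acyl ester substrate by the enzyme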
# Fatty acid synthase [9] = target: T5, Fatty acid synthase; experiment: inhibition of human FAS-TE enzyme activity – biochemical, kinetic fluorescence intensity, dose response (AID 624326); assay type: functional;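 note: rate of fluorescence rise from hydrolysis of a fluorogenic O-methyl fluorescein ester substrate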
# Kallikrein-7 = Kallikrein-7 (Homo sapiens, UniProt P49862); experiment: Fluorescence Intensity-based biochemical primary high throughput dose response assay to identify activators of kallikrein-7 (K7) zymogen.
# P388/ADR = experiment: cells; assay type: functional; settings: Mus musculus
# [10] = target: T6, DNA repair protein RAD52 homolog (Homo sapiens, UniProt P43351); assay type: functional, biochemical
# T6 sequence (P43351 whole entry): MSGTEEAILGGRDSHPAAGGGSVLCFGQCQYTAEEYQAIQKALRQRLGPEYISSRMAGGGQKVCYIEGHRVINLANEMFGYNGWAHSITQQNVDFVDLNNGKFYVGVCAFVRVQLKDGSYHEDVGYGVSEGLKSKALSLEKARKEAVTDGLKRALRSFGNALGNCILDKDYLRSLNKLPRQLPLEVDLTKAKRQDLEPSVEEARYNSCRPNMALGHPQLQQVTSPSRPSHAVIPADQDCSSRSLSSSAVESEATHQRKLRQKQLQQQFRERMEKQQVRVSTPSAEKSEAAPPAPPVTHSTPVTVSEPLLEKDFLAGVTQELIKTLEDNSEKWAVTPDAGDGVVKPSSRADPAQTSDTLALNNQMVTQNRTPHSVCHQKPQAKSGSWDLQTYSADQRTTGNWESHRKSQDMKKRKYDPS
# Nonstructural protein 1 = Nonstructural protein 1 (Influenza A virus, UniProt Q194T2); assay type: functional, Influenza A virus (A/California/07/2009(H1N1))
# [11] = target: T7, Rac GTPase-activating protein 1 (Homo sapiens, UniProt Q9H0H5); experiment: blockers of MgcRacGAP-driven Rac1 GTP hydrolysis – biochemical, ADP Hunter fluorescence, primary and confirmatory, confirmation (AID 624330); assay type: functional
# T7 sequence (Q9H0H5 whole entry): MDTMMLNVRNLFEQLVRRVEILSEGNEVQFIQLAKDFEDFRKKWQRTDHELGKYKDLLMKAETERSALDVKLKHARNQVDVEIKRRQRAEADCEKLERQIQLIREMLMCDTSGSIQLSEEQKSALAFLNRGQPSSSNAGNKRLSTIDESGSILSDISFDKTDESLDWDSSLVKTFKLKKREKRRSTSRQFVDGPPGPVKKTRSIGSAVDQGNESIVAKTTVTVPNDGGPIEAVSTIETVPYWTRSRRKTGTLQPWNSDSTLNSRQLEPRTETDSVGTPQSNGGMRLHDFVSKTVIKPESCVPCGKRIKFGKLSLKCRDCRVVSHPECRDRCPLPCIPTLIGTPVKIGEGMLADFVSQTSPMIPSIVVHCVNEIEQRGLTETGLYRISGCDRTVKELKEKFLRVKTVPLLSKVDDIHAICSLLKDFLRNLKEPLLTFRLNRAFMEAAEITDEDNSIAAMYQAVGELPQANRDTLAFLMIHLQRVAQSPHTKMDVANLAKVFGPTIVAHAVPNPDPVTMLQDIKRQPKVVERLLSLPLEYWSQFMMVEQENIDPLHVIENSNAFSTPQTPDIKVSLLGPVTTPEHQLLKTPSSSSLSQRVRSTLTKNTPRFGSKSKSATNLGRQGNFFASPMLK
# SN12K1 = experiment: cells; assay type: functional; settings: Homo sapiens
# P388 = experiment: cells; assay type: functional; settings: Mus musculus
# [12] = target: T8, Trace amine-associated receptor 1 (Homo sapiens, UniProt Q96RJ0); experiment: Fluorescence-based cell-based high throughput dose response assay to identify agonists of the human trace amine associated receptor 1 (TAAR1).; assay type: functional
# T8 sequence (Q96RJ0 whole entry): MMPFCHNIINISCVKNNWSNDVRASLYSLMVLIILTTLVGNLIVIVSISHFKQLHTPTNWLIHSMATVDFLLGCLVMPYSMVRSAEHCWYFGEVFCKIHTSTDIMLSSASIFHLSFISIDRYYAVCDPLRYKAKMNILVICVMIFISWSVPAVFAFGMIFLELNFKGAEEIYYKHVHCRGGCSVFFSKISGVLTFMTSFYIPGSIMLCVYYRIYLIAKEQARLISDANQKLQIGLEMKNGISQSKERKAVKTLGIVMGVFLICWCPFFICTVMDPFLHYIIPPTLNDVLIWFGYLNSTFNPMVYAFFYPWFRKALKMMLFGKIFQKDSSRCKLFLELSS
# cells [13] = assay type: functional, cell-based
# cells [14] = assay type: functional, cell-based; remark: listed apart in the source
# [15] = target: T8, Trace amine-associated receptor 1; experiment: Counterscreen for agonists of the human trace amine associated receptor 1 (hTAAR1): Fluorescence-based cell-based high throughput dose response assay to identify hTAAR1 agonist that also desensitize TAAR1 receptor response.; assay type: functional
# Sequence of Disintegrin and metalloproteinase domain-containing protein 17 (P78536 whole entry, the tested form may be a part): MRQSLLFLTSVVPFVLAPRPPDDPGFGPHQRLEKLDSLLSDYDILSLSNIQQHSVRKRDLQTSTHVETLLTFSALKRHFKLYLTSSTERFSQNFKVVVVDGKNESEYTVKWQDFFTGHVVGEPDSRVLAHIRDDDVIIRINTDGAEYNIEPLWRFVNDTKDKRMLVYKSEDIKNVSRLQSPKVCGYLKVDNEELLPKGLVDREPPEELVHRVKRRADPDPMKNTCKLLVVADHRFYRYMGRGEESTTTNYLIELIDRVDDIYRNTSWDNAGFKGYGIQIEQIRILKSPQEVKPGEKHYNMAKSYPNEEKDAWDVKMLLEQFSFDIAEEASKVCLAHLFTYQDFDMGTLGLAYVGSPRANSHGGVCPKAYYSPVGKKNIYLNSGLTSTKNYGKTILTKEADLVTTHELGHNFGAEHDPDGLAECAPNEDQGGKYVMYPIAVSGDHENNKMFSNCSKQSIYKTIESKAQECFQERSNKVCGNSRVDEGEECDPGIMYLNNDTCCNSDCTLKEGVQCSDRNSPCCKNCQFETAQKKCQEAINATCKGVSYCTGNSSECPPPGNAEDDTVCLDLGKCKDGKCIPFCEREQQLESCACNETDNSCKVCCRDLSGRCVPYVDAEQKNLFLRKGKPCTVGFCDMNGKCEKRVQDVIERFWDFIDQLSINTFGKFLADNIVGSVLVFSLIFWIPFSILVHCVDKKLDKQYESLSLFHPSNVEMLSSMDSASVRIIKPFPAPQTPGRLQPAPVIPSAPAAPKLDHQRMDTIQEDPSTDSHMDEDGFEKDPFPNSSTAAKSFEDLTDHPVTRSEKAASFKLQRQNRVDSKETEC
# T5 sequence (P49327 whole entry): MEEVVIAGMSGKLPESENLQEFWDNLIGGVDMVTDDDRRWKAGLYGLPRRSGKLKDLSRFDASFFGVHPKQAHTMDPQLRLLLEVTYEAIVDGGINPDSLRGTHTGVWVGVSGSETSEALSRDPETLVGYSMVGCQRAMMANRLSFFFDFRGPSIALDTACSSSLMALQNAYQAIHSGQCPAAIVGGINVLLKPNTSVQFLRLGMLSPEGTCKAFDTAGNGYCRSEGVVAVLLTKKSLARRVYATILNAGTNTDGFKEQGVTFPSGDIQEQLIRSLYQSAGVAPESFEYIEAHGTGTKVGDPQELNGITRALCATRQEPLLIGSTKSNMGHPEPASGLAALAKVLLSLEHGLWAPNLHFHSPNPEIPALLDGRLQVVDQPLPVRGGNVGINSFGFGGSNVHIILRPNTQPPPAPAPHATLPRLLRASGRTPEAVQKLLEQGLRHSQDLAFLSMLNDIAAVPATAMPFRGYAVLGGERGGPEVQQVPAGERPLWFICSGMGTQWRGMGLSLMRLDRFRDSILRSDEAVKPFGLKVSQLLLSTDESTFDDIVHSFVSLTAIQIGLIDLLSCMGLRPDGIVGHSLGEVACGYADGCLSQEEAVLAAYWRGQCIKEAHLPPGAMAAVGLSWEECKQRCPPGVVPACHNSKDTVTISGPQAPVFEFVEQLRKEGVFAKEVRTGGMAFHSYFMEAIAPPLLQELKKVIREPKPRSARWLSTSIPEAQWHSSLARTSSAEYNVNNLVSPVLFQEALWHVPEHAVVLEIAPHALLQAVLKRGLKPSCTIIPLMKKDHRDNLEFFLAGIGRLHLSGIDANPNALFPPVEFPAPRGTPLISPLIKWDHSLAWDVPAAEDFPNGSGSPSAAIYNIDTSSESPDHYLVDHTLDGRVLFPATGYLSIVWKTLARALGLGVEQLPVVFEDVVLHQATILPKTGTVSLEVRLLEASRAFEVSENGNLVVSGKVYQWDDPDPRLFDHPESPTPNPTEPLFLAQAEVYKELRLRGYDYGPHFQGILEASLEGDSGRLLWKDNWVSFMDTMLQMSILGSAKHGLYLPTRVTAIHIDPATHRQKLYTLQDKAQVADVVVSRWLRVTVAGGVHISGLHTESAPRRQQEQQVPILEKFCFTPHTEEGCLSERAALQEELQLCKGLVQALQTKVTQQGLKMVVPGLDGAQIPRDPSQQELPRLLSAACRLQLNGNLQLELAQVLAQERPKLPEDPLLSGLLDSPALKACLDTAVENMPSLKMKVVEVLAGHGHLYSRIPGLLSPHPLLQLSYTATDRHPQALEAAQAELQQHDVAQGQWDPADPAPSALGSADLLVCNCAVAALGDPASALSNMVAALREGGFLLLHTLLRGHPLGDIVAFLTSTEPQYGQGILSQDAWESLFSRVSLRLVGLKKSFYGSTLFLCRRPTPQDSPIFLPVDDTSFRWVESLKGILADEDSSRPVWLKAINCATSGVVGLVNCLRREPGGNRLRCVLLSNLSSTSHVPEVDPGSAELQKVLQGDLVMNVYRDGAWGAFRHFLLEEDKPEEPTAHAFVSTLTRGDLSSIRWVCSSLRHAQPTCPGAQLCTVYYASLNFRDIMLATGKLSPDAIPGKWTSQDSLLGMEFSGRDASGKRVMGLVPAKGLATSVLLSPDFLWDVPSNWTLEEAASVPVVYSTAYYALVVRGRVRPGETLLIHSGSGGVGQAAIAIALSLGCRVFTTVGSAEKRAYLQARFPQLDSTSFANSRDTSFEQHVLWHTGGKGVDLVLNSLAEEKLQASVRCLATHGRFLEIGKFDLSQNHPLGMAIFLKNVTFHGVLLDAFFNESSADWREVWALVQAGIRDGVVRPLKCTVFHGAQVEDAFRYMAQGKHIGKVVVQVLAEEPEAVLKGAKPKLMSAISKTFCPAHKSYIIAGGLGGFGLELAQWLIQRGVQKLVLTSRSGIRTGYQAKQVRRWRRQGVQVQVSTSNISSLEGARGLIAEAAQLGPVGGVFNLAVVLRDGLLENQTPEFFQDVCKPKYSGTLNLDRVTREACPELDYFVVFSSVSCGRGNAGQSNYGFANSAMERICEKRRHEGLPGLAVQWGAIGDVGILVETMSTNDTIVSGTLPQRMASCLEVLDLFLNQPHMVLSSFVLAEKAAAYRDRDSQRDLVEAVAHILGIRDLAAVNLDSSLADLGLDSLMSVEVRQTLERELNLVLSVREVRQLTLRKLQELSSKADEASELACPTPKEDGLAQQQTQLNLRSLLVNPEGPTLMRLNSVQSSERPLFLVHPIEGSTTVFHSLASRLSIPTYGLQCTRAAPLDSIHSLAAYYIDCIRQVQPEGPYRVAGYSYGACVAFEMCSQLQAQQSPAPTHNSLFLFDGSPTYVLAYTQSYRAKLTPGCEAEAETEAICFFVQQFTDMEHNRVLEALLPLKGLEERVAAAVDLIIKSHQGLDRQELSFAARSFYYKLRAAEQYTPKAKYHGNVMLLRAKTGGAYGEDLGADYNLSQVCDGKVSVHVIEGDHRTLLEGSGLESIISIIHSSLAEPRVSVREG
# Sequence of Kallikrein-7 (P49862 whole entry): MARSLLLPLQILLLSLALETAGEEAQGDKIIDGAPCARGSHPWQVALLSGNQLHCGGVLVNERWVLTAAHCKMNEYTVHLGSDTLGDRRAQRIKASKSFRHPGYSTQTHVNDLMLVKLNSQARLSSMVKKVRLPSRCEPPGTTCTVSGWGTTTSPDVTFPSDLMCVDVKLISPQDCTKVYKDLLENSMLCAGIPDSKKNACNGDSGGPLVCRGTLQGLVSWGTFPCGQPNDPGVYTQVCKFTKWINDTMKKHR
# Sequence of Nonstructural protein 1 (Q194T2 whole entry): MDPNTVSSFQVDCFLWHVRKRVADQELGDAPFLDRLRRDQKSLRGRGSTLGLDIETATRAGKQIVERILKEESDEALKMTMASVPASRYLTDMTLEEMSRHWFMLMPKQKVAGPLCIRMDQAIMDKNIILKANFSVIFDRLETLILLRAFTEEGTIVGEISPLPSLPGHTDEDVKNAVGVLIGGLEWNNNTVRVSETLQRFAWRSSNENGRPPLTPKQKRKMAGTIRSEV
smiles,measurement,setting,value
O=C(/C=C/Nc1ccc(F)cc1)c1cccs1,EC50,cells [1],> 67.6 µM (inactive)
same,EC50,[2],> 67.6 µM (inactive)
NS(=O)(=O)c1ccc(N/N=C/C=C/c2ccccc2[N+](=O)[O-])cc1,IC50,[3],> 69.5 µM (inactive)
same,IC50,[4],13.7 µM (inactive)
Cc1ccc(-n2[nH]c(C)c(/C=N/Nc3ccc([N+](=O)[O-])cc3[N+](=O)[O-])c2=O)cc1C,IC50,[5],10.5 µM (active)
same,IC50,[6],3.32 µM (active)
same,AC50,[7],14 µM (active)
same,IC50,Fatty acid synthase [8],53.5 µM (inactive)
same,IC50,Fatty acid synthase [9],32.9 µM (inactive)
O=C(O)CCC(=O)NN1C(=O)c2ccccc2NC1c1ccc(F)cc1 (stereo not given),EC50,Kallikrein-7,> 0.286 µM (active)
COc1cc2c(ccc3c4cc(OC)c(OC)cc4c[n+](C)c23)cc1O [FAGARONINE],GI50,P388/ADR,66.5 µM (inactive)
same,AC50,[10],< 0.244 µM (active)
same,IC50,Nonstructural protein 1,> 100 µM (active)
same,IC50,[11],42.5 µM (active)
same,GI50,SN12K1,1.95 µM (inactive)
same,GI50,P388,0.489 µM (active)
CCN1CCN(c2ccc(/N=C/c3ccccc3O)cc2)CC1,AC50,[10],2.23 µM (active)
same,IC50,[11],20.8 µM (active)
NS(=O)(=O)c1ccc(CCNC(=O)CNCCc2ccccc2)cc1,EC50,[12],1.07 µM (active)
same,IC50,cells [13],> 29.9 µM (inactive)
same,EC50,cells [14],> 29.9 µM (inactive)
same,IC50,[15],3.56 µM (active)
COc1cccc(C(=O)N[C@H](C(=O)N2CCC[C@H]2C(=O)NCCc2ccccc2Cl)C2CCCCC2)c1,EC50,[12],6.72 µM (active)
same,IC50,cells [13],> 29.9 µM (inactive)
same,EC50,cells [14],> 29.9 µM (inactive)
same,IC50,[15],6.66 µM (active)
Cc1ccc(C)c(NC(=O)c2ccc3ccccc3n2)c1,EC50,cells [1],> 67.5 µM (inactive)
same,EC50,[2],> 67.5 µM (inactive)
CCOC(=O)C(NCCc1ccccc1)(NC(=O)CC)C(F)(F)F (stereo not given),EC50,[12],1.81 µM (active)
same,IC50,cells [13],> 29.9 µM (inactive)
same,EC50,cells [14],> 29.9 µM (inactive)
same,IC50,[15],8.43 µM (active)
CCOC(=O)c1c(C)nc(-c2ccccc2)nc1N,EC50,cells [1],> 67.5 µM (inactive)
same,EC50,[2],> 67.5 µM (inactive)
Cc1cc(N(C)C)nc(Nc2ccccc2)n1,EC50,[12],0.128 µM (active)
same,IC50,cells [13],> 29.9 µM (inactive)
same,EC50,cells [14],> 29.9 µM (inactive)
same,IC50,[15],0.273 µM (active)
CCCCC[C@@H](C)N1C[C@@H](COCc2ccccc2)Oc2cc(N3CCC[C@H]3CO)ccc2S1(=O)=O,IC50,[3],> 69.5 µM (inactive)
same,IC50,[4],9.07 µM (active)
